Values of other authors, collected in patent US9687466B2, “Use of dianhydrogalactitol and analogs and derivatives thereof to treat glioblastoma multiforme” (DELMAR PHARMACEUTICALS, INC., priority 0212, dated 2017).

Settings: cited from earlier work

## O[C@H]([C@H](O)[C@@H](O)CBr)[C@H](O)CBr [dibromodulcitol]
  absorption by the oral route: rapid and fairly complete
